# ChEMBL document CHEMBL4011590, “Structure-activity relationship studies on 3,5-dinitrophenyl tetrazoles as antitubercular agents” (Eur J Med Chem, 2017)
# Assays:
# [1] = system: Mycobacterium tuberculosis; test: Antimycobacterial activity against Mycobacterium tuberculosis H37Rv CNCTC My 331/88 after 14 days by micromethod; type: functional; conditions: H37Rv CNCTC My 331/88, 336 h
# [2] = system: Mycobacterium tuberculosis; test: Antimycobacterial activity against Mycobacterium tuberculosis H37Rv CNCTC My 331/88 after 21 days by micromethod; type: functional; conditions: H37Rv CNCTC My 331/88, 504 h
# [3] = system: Mycobacterium avium; test: Antimycobacterial activity against Mycobacterium avium CNCTC My 330/80 after 14 days by micromethod; type: functional; conditions: CNCTC My 330/80, 336 h
# [4] = system: Mycobacterium avium; test: Antimycobacterial activity against Mycobacterium avium CNCTC My 330/80 after 21 days by micromethod; type: functional; conditions: CNCTC My 330/80, 504 h
# [5] = system: Mycobacterium kansasii; test: Antimycobacterial activity against Mycobacterium kansasii CNCTC My 235/80 after 7 days by micromethod; type: functional; conditions: CNCTC My 235/80, 168 h
# [6] = system: Mycobacterium kansasii; test: Antimycobacterial activity against Mycobacterium kansasii CNCTC My 235/80 after 14 days by micromethod; type: functional; conditions: CNCTC My 235/80, 336 h
# [7] = system: Mycobacterium kansasii; test: Antimycobacterial activity against Mycobacterium kansasii CNCTC My 235/80 after 21 days by micromethod; type: functional; conditions: CNCTC My 235/80, 504 h
# [8] = system: Mycobacterium kansasii; test: Antimycobacterial activity against Mycobacterium kansasii isolate 6509/96 after 7 days by micromethod; type: functional; conditions: isolate 6509/96, 168 h
# [9] = system: Mycobacterium kansasii; test: Antimycobacterial activity against Mycobacterium kansasii isolate 6509/96 after 14 days by micromethod; type: functional; conditions: isolate 6509/96, 336 h
# [10] = system: Mycobacterium kansasii; test: Antimycobacterial activity against Mycobacterium kansasii isolate 6509/96 after 21 days by micromethod; type: functional; conditions: isolate 6509/96, 504 h
# [11] = system: CHO-K1; test: Cytotoxicity against CHOK1 cells after 24 hrs by MTT assay; type: cell-based; conditions: Cricetulus griseus, CHO-K1, 24 h
# [12] = system: Staphylococcus aureus; test: Antibacterial activity against Staphylococcus aureus ATCC 6538 after 24 hrs by broth microdilution method; type: functional; conditions: ATCC 6538, 24 h
# [13] = system: Staphylococcus aureus; test: Antibacterial activity against Staphylococcus aureus ATCC 6538 after 48 hrs by broth microdilution method; type: functional; conditions: ATCC 6538, 48 h
# [14] = system: Staphylococcus aureus; test: Antibacterial activity against methicillin-resistant Staphylococcus aureus HK5996/08 after 24 hrs by broth microdilution method; type: functional; conditions: HK5996/08, 24 h
# [15] = system: Staphylococcus aureus; test: Antibacterial activity against methicillin-resistant Staphylococcus aureus HK5996/08 after 48 hrs by broth microdilution method; type: functional; conditions: HK5996/08, 48 h
# [16] = system: Staphylococcus epidermidis; test: Antibacterial activity against Staphylococcus epidermidis HK6966/08 after 24 hrs by broth microdilution method; type: functional; conditions: HK6966/08, 24 h
# [17] = system: Staphylococcus epidermidis; test: Antibacterial activity against Staphylococcus epidermidis HK6966/08 after 48 hrs by broth microdilution method; type: functional; conditions: HK6966/08, 48 h
# [18] = system: Enterococcus sp.; test: Antibacterial activity against Enterococcus sp. HK14365/08 after 24 hrs by broth microdilution method; type: functional; conditions: HK14365/08, 24 h
# [19] = system: Enterococcus sp.; test: Antibacterial activity against Enterococcus sp. HK14365/08 after 48 hrs by broth microdilution method; type: functional; conditions: HK14365/08, 48 h
# [20] = system: Escherichia coli; test: Antibacterial activity against Escherichia coli ATCC 8739 after 24 hrs by broth microdilution method; type: functional; conditions: ATCC 8739, 24 h
# [21] = system: Escherichia coli; test: Antibacterial activity against Escherichia coli ATCC 8739 after 48 hrs by broth microdilution method; type: functional; conditions: ATCC 8739, 48 h
# [22] = system: Klebsiella pneumoniae; test: Antibacterial activity against Klebsiella pneumoniae HK11750/08 after 24 hrs by broth microdilution method; type: functional; conditions: HK11750/08, 24 h
# [23] = system: Klebsiella pneumoniae; test: Antibacterial activity against Klebsiella pneumoniae HK11750/08 after 48 hrs by broth microdilution method; type: functional; conditions: HK11750/08, 48 h
# [24] = system: Klebsiella pneumoniae; test: Antibacterial activity against extended spectrum beta-lactamase producing Klebsiella pneumoniae HK14368/08 after 24 hrs by broth microdilution method; type: functional; conditions: HK14368/08, 24 h
# [25] = system: Klebsiella pneumoniae; test: Antibacterial activity against extended spectrum beta-lactamase producing Klebsiella pneumoniae HK14368/08 after 48 hrs by broth microdilution method; type: functional; conditions: HK14368/08, 48 h
# [26] = system: Pseudomonas aeruginosa; test: Antibacterial activity against Pseudomonas aeruginosa ATCC 9027 after 24 hrs by broth microdilution method; type: functional; conditions: ATCC 9027, 24 h
# [27] = system: Pseudomonas aeruginosa; test: Antibacterial activity against Pseudomonas aeruginosa ATCC 9027 after 48 hrs by broth microdilution method; type: functional; conditions: ATCC 9027, 48 h
# [28] = system: Candida albicans; test: Antifungal activity against Candida albicans ATCC 44859 after 24 hrs by broth microdilution method; type: functional; conditions: ATCC 44859, 24 h
# [29] = system: Candida albicans; test: Antifungal activity against Candida albicans ATCC 44859 after 48 hrs by broth microdilution method; type: functional; conditions: ATCC 44859, 48 h
# [30] = system: Candida tropicalis; test: Antifungal activity against Candida tropicalis 156 after 24 hrs by broth microdilution method; type: functional; conditions: Candida tropicalis, 156, 24 h
# [31] = system: Candida tropicalis; test: Antifungal activity against Candida tropicalis 156 after 48 hrs by broth microdilution method; type: functional; conditions: Candida tropicalis, 156, 48 h
# [32] = system: Pichia kudriavzevii; test: Antifungal activity against Candida krusei E28 after 24 hrs by broth microdilution method; type: functional; conditions: E28, 24 h
# [33] = system: Pichia kudriavzevii; test: Antifungal activity against Candida krusei E28 after 48 hrs by broth microdilution method; type: functional; conditions: E28, 48 h
# [34] = system: Nakaseomyces glabratus; test: Antifungal activity against Candida glabrata 20/I after 24 hrs by broth microdilution method; type: functional
# [35] = system: Nakaseomyces glabratus; test: Antifungal activity against Candida glabrata 20/I after 48 hrs by broth microdilution method; type: functional
# [36] = system: Trichosporon asahii; test: Antifungal activity against Trichosporon asahii 1188 after 24 hrs by broth microdilution method; type: functional; conditions: Trichosporon asahii, 1188, 24 h
# [37] = system: Trichosporon asahii; test: Antifungal activity against Trichosporon asahii 1188 after 48 hrs by broth microdilution method; type: functional; conditions: Trichosporon asahii, 1188, 48 h
# [38] = system: Aspergillus fumigatus; test: Antifungal activity against Aspergillus fumigatus 231 after 24 hrs by broth microdilution method; type: functional; conditions: Aspergillus fumigatus, 231, 24 h
# [39] = system: Aspergillus fumigatus; test: Antifungal activity against Aspergillus fumigatus 231 after 48 hrs by broth microdilution method; type: functional; conditions: Aspergillus fumigatus, 231, 48 h
# [40] = system: Lichtheimia corymbifera; test: Antifungal activity against Absidia corymbifera 272 after 24 hrs by broth microdilution method; type: functional; conditions: Lichtheimia corymbifera, 272, 24 h
# [41] = system: Lichtheimia corymbifera; test: Antifungal activity against Absidia corymbifera 272 after 48 hrs by broth microdilution method; type: functional; conditions: Lichtheimia corymbifera, 272, 48 h
# [42] = system: Trichophyton mentagrophytes; test: Antifungal activity against Trichophyton mentagrophytes 445 after 72 hrs by broth microdilution method; type: functional; conditions: Trichophyton mentagrophytes, 445, 72 h
# [43] = system: Trichophyton mentagrophytes; test: Antifungal activity against Trichophyton mentagrophytes 445 after 120 hrs by broth microdilution method; type: functional; conditions: Trichophyton mentagrophytes, 445, 120 h
structure (smiles),measurement,setting,value
COc1cccc(Cn2nnc(-c3cc([N+](=O)[O-])cc([N+](=O)[O-])c3)n2)c1,MIC99,[1],1 µM
same,MIC99,[2],1 µM
same,MIC99,[3],4 µM
same,MIC99,[4],8 µM
same,MIC99,[5],1 µM
same,MIC99,[6],2 µM
same,MIC99,[7],4 µM
same,MIC99,[8],1 µM
same,MIC99,[9],2 µM
same,MIC99,[10],2 µM
same,IC50,[11],> 100 µM
same,MIC,[12],> 500 µM
same,MIC,[13],> 500 µM
same,MIC,[14],> 500 µM
same,MIC,[15],> 500 µM
same,MIC,[16],> 500 µM
same,MIC,[17],> 500 µM
same,MIC,[18],> 500 µM
same,MIC,[19],> 500 µM
same,MIC,[20],> 500 µM
same,MIC,[21],> 500 µM
same,MIC,[22],> 500 µM
same,MIC,[23],> 500 µM
same,MIC,[24],> 500 µM
same,MIC,[25],> 500 µM
same,MIC,[26],> 500 µM
same,MIC,[27],> 500 µM
same,MIC,[28],> 500 µM
same,MIC,[29],> 500 µM
same,MIC,[30],> 500 µM
same,MIC,[31],> 500 µM
same,MIC,[32],> 500 µM
same,MIC,[33],> 500 µM
same,MIC,[34],> 500 µM
same,MIC,[35],> 500 µM
same,MIC,[36],> 500 µM
same,MIC,[37],> 500 µM
same,MIC,[38],> 500 µM
same,MIC,[39],> 500 µM
same,MIC,[40],> 500 µM
same,MIC,[41],> 500 µM
same,MIC,[42],> 500 µM
same,MIC,[43],> 500 µM
